In this assay the target is T1, BTK (Homo sapiens, UniProt Q06187).
T1 construct: endogenous in cells; host or cells: Ramos (ATCC CRL-1596)
Briefly: Cellular BTK HTRF Assay (BTK degradation in Ramos cells). In kind it is cell-based. Conditions: four hours incubation, 37° C., BTK levels relative to DMSO-treated cells. As for the experimental part:
Ramos (CRL-1596) cells were obtained from American Type Culture Collection and were grown in RPMI-1640 media (ATCC, 30-2001) supplemented with 10% heat-inactivated FBS (Corning Premium Fetal Bovine Serum from Fisher, MT35015CV).
Compounds of the present invention were added to 50,000 Ramos cells in round-bottom 96 well plates with a final DMSO concentration of […] and were incubated at 37° C., 5% CO2 for four hours. BTK levels were determined using Cisbio Total-BTK HTRF ([…] Time-Resolved Fluorescence) kit (63ADK064PEG) according to manufacturer's protocol. Briefly, cells were incubated in 1× supplied lysis buffer for 30 minutes. In an opaque white low volume 96 well plate (Cisbio, 66PL96005), cell lysate was combined with two different specific BTK antibodies, one conjugated with Eu^3+-Cryptate FRET donor and one conjugated with d2 FRET acceptor. Assay controls include wells containing cell lysate with only the Eu^3+-Cryptate FRET donor antibody and wells containing both HTRF antibodies and lysis buffer without cells or control lysate provided by Cisbio. HTRF ratio was calculated as (acceptor signal at 665 nm/donor signal at 620 nm)×10^4. Background HTRF levels were determined from the control well containing the donor, but no acceptor, antibody. Background HTRF levels were subtracted from all samples. Readouts were reported as HTRF levels relative to HTRF levels of DMSO-treated cells. Four-parameter non-linear regressions were performed in GraphPad Prism 7.02 to obtain DC50 values. DC50 values are provided in Table 3, wherein A<7.5 nM, 7.5 nM≤B≤50 nM, and 50 nM<C<500 nM.
On the technique in general: Time-resolved FRET reads energy transfer from a long-lived donor to a nearby acceptor.

SMILES strings stand for the structures.

T1 sequence (Q06187 whole entry): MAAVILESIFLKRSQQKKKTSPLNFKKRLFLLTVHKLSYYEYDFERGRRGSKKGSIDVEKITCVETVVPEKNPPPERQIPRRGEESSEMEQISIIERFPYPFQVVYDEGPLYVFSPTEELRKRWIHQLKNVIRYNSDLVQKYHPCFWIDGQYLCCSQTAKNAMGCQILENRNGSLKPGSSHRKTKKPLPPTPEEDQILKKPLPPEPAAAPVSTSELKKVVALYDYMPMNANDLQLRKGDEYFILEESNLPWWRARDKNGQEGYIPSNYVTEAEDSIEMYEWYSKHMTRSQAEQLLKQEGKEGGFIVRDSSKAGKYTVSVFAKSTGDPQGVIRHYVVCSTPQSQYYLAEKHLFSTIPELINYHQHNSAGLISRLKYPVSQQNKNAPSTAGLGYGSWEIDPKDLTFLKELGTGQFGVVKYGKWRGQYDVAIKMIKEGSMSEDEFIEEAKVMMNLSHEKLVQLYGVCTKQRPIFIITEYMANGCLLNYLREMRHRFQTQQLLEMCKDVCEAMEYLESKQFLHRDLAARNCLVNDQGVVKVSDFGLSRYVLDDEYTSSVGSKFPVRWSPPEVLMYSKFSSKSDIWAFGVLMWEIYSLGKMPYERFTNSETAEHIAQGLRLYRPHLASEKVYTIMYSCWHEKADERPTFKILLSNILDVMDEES

As a reminder, the DC50 is the concentration at which degradation of the target reaches its halfway point. Higher therefore signals degradation only at high concentration. For the compound `CS(=O)(=O)c1ccc(Nc2nc(N3CCC[C@@H](NC(=O)C4CCC5(CC4)CCN(Cc4ccc6c(c4)C(=O)N(C4CCC(=O)NC4=O)C6=O)CC5)C3)cnc2C(N)=O)cc1` (stereo partly drawn) [Compound 31, N—((R)-1-(5-carbamoyl-6-((4-(methylsulfonyl)phenyl)amino)pyrazin-2-yl)piperidin-3-yl)-3-((2-(2,6-dioxopiperidin-3-yl)-1,3-dioxoisoindolin-5-yl)methyl)-3-azaspiro[5.5]undecane-9-carboxamide], the half-maximal degradation concentration (DC50) is below 7.5 nM.

The compound `Cc1cc(Nc2nc(N3CCCC(NC(=O)CCOCCCc4cccc5c4CN(C4CCC(=O)NC4=O)C5=O)C3)cnc2C(N)=O)sn1` (stereo in doubt) [Compound 45, 5-[(3R)-3-(3-{3-[2-(2,6-dioxopiperidin-3-yl)-1-oxo-3H-isoindol-4-yl]propoxy}propanamido)piperidin-1-yl]-3-[(3-methyl-1,2-thiazol-5-yl)amino]pyrazine-2-carboxamide] yielded a DC50 of 50 to 500 nM.

Take `CS(=O)(=O)c1ccc(Nc2nc(N3CCC[C@@H](NC(=O)OCCCCCOc4ccc5c(c4)C(=O)N(C4CCC(=O)NC4=O)C5=O)C3)cnc2C(N)=O)cc1` (stereo partly drawn) [Compound 2, 5-((2-(2,6-dioxopiperidin-3-yl)-1,3-dioxoisoindolin-5-yl)oxy)pentyl ((R)-1-(5-carbamoyl-6-((4-(methylsulfonyl)phenyl)amino)pyrazin-2-yl)piperidin-3-yl)carbamate]: the DC50 was 7.5 to 50 nM.

`CS(=O)(=O)c1ccc(Nc2nc(N3CCC[C@@H](NC(=O)OCCC4CCN(c5ccc6c(c5)C(=O)N(C5CCC(=O)NC5=O)C6=O)CC4)C3)cnc2C(N)=O)cc1` (stereo partly drawn) [Compound 6, 2-(1-(2-(2,6-dioxopiperidin-3-yl)-1,3-dioxoisoindolin-5-yl)piperidin-4-yl)ethyl ((R)-1-(5-carbamoyl-6-((4-(methylsulfonyl)phenyl)amino)pyrazin-2-yl)piperidin-3-yl)carbamate]: the DC50 lay within 7.5 to 50 nM.

As for `Cc1cc(Nc2nc(N3CCC[C@@H](NC(=O)N4CCN(CC5CN(c6ccc7c(c6)C(=O)N(C6CCC(=O)NC6=O)C7=O)C5)CC4)C3)cnc2C(N)=O)sn1` (stereo partly drawn) [Compound 18, 5-[(3R)-3-[4-({1-[2-(2,6-dioxopiperidin-3-yl)-1,3-dioxoisoindol-5-yl]azetidin-3-yl}methyl)piperazine-1-carbonylamino]piperidin-1-yl]-3-[(3-methyl-1,2-thiazol-5-yl)amino]pyrazine-2-carboxamide], the 50% degradation concentration (DC50) was below 7.5 nM.

Regarding `CS(=O)(=O)c1ccc(Nc2nc(N3CCC[C@@H](NC(=O)C4CCN(CC5CCN(c6ccc7c(c6)C(=O)N(C6CCC(=O)NC6=O)C7=O)CC5)C4)C3)cnc2C(N)=O)cc1` (stereo partly drawn) [Compound 14, 5-[(3R)-3-[1-({1-[2-(2,6-dioxopiperidin-3-yl)-1,3-dioxoisoindol-5-yl]piperidin-4-yl}methyl)pyrrolidine-3-amido]piperidin-1-yl]-3-[(4-methanesulfonylphenyl)amino]pyrazine-2-carboxamide], the 50% degradation concentration (DC50) was below 7.5 nM.

For `Cc1cc(Nc2nc(N3CCC[C@@H](NC(=O)C4CCN(CC5CN(c6ccc7c(c6)C(=O)N(C6CCC(=O)NC6=O)C7=O)C5)C4)C3)cnc2C(N)=O)sn1` (stereo partly drawn) [Compound 16, 5-[(3R)-3-[1-({1-[2-(2,6-dioxopiperidin-3-yl)-1,3-dioxoisoindol-5-yl]azetidin-3-yl}methyl)pyrrolidine-3-amido]piperidin-1-yl]-3-[(3-methyl-1,2-thiazol-5-yl)amino]pyrazine-2-carboxamide], the 50% degradation concentration (DC50) was below 7.5 nM.

In turn, `Cc1cc(Nc2nc(N3CCC[C@@H](NC(=O)C4CCN(C5CN(c6ccc7c(c6)C(=O)N(C6CCC(=O)NC6=O)C7=O)C5)CC4)C3)cnc2C(N)=O)sn1` (stereo partly drawn) [Compound 38, 5-((3R)-3-(1-(1-(2-(2,6-dioxopiperidin-3-yl)-1,3-dioxoisoindolin-5-yl)azetidin-3-yl)piperidine-4-carboxamido)piperidin-1-yl)-3-((3-methylisothiazol-5-yl)amino)pyrazine-2-carboxamide] had a half-maximal degradation concentration (DC50) of 7.5 to 50 nM.

`CS(=O)(=O)c1ccc(Nc2nc(N3CCC[C@@H](NC(=O)C4CC5CCC(C4)N5CC4CCN(c5ccc6c(c5)C(=O)N(C5CCC(=O)NC5=O)C6=O)CC4)C3)cnc2C(N)=O)cc1` (stereo partly drawn) [Compound 34, (1R,3s,5S)—N—((R)-1-(5-carbamoyl-6-((4-(methylsulfonyl)phenyl)amino)pyrazin-2-yl)piperidin-3-yl)-8-((1-(2-(2,6-dioxopiperidin-3-yl)-1,3-dioxoisoindolin-5-yl)piperidin-4-yl)methyl)-8-azabicyclo[3.2.1]octane-3-carboxamide] returned a DC50 of 7.5 to 50 nM.

The compound `CS(=O)(=O)c1ccc(Nc2nc(N3CCC[C@@H](NC(=O)N4CCC5(CCN(Cc6ccc7c(c6)C(=O)N(C6CCC(=O)NC6=O)C7=O)C5)CC4)C3)cnc2C(N)=O)cc1` (stereo partly drawn) [Compound 13, N-[(3R)-1-{5-carbamoyl-6-[(4-methanesulfonylphenyl)amino]pyrazin-2-yl}piperidin-3-yl]-2-{[2-(2,6-dioxopiperidin-3-yl)-1,3-dioxoisoindol-5-yl]methyl}-2,8-diazaspiro[4.5]decane-8-carboxamide] displayed a 50% degradation concentration (DC50) below 7.5 nM.

Consider `Cc1cc(Nc2nc(N3CCC[C@@H](NC(=O)OCCC4CCN(c5ccc6c(c5)C(=O)N(C5CCC(=O)NC5=O)C6=O)CC4)C3)cnc2C(N)=O)sn1` (stereo partly drawn) [Compound 7, 2-(1-(2-(2,6-dioxopiperidin-3-yl)-1,3-dioxoisoindolin-5-yl)piperidin-4-yl)ethyl ((R)-1-(5-carbamoyl-6-((3-methylisothiazol-5-yl)amino)pyrazin-2-yl)piperidin-3-yl)carbamate], for which the half-maximal degradation concentration (DC50) fell in the range of 50 to 500 nM.

`CS(=O)(=O)c1ccc(Nc2nc(N3CCC[C@@H](NC(=O)C4CCC5(CC4)CCN(c4ccc6c(c4)C(=O)N(C4CCC(=O)NC4=O)C6=O)CC5)C3)cnc2C(N)=O)cc1` (stereo partly drawn) [Compound 36, N-[(3R)-1-{5-carbamoyl-6-[(4-methanesulfonylphenyl)amino]pyrazin-2-yl}piperidin-3-yl]-3-[2-(2,6-dioxopiperidin-3-yl)-1,3-dioxoisoindol-5-yl]-3-azaspiro[5.5]undecane-9-carboxamide] registered a 50% degradation concentration (DC50) below 7.5 nM.

`CS(=O)(=O)c1ccc(Nc2nc(N3CCC[C@@H](NC(=O)N4CCC5(CCN(c6ccc7c(c6)C(=O)N(C6CCC(=O)NC6=O)C7=O)CC5)C4)C3)cnc2C(N)=O)cc1` (stereo partly drawn) [Compound 10, N—((R)-1-(5-carbamoyl-6-((4-(methylsulfonyl)phenyl)amino)pyrazine-2-yl)piperidin-3-yl)-8-(2-(2,6-dioxopiperidin-3-yl)-1,3-dioxoisoindolin-5-yl)-2,8-diazaspiro[4.5]decane-2-carboxamide] displayed a half-maximal degradation concentration (DC50) of 7.5 to 50 nM.

As to `Cc1cc(Nc2nc(N3CCC[C@@H](NC(=O)C4CCN(C5CN(Cc6ccc7c(c6)C(=O)N(C6CCC(=O)NC6=O)C7=O)C5)CC4)C3)cnc2C(N)=O)sn1` (stereo partly drawn) [Compound 37, 5-[(3R)-3-[1-(1-{[2-(2,6-dioxopiperidin-3-yl)-1,3-dioxoisoindol-5-yl]methyl}azetidin-3-yl)piperidine-4-amido]piperidin-1-yl]-3-[(3-methyl-1,2-thiazol-5-yl)amino]pyrazine-2-carboxamide], the DC50 is below 7.5 nM.

As to `Cn1cc(Nc2nc(N3CCC[C@@H](NC(=O)C4CCN(CC5CCN(c6ccc7c(c6)C(=O)N(C6CCC(=O)NC6=O)C7=O)CC5)CC4)C3)cnc2C(N)=O)cn1` (stereo partly drawn) [Compound 21, 5-((3R)-3-(1-((1-(2-(2,6-dioxopiperidin-3-yl)-1,3-dioxoisoindolin-5-yl)piperidin-4-yl)methyl)piperidine-4-carboxamido)piperidin-1-yl)-3-((1-methyl-1H-pyrazol-4-yl)amino)pyrazine-2-carboxamide], the DC50 is below 7.5 nM.

Take `CS(=O)(=O)c1ccc(Nc2nc(N3CCC[C@@H](NC(=O)C4CC5(C4)CN(Cc4ccc6c(c4)C(=O)N(C4CCC(=O)NC4=O)C6=O)C5)C3)cnc2C(N)=O)cc1` (stereo partly drawn) [Compound 32, N—((R)-1-(5-carbamoyl-6-((4-(methylsulfonyl)phenyl)amino)pyrazin-2-yl)piperidin-3-yl)-2-((2-(2,6-dioxopiperidin-3-yl)-1,3-dioxoisoindolin-5-yl)methyl)-2-azaspiro[3.3]heptane-6-carboxamide]: the DC50 lay within 7.5 to 50 nM.

`CS(=O)(=O)c1ccc(Nc2nc(N3CCC[C@@H](NC(=O)N4CC5(CN(Cc6ccc7c(c6)C(=O)N(C6CCC(=O)NC6=O)C7=O)C5)C4)C3)cnc2C(N)=O)cc1` (stereo partly drawn) [Compound 25, N-[(3R)-1-{5-carbamoyl-6-[(4-methanesulfonylphenyl)amino]pyrazin-2-yl}piperidin-3-yl]-6-{[2-(2,6-dioxopiperidin-3-yl)-1,3-dioxoisoindol-5-yl]methyl}-2,6-diazaspiro[3.3]heptane-2-carboxamide] yielded a half-maximal degradation concentration (DC50) of 7.5 to 50 nM.

`CS(=O)(=O)c1ccc(Nc2nc(N3CCC[C@@H](NC(=O)N4CC5(C4)CN(c4ccc6c(c4)C(=O)N(C4CCC(=O)NC4=O)C6=O)C5)C3)cnc2C(N)=O)cc1` (stereo partly drawn) [Compound 24, N-[(3R)-1-{5-carbamoyl-6-[(4-methanesulfonylphenyl)amino]pyrazine-2-yl}piperidin-3-yl]-6-[2-(2,6-dioxopiperidin-3-yl)-1,3-dioxoisoindol-5-yl]-2,6-diazaspiro[3.3]heptane-2-carboxamide] returned a half-maximal degradation concentration (DC50) of 7.5 to 50 nM.

The record behind these values is patent publication US12582722B2, “Bifunctional compounds for degrading BTK via ubiquitin proteosome pathway” (NURIX THERAPEUTICS, INC., priority 2019, dated 2026).
